Assay results: US11780839B2, “Compounds for treating Huntington's disease” (PTC THERAPEUTICS, INC., priority 2018, dated 2023)
pIC50: −log10 of the molar value.

Test system: Endogenous Huntingtin Protein
Experiment: Endogenous Huntingtin Protein Assay (ELISA-based Meso Scale Discovery electrochemiluminescence)
Assay type: cell-based
Settings: MSD electrochemiluminescence, Table 1
Procedure, shortened: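 Sandwich MSD electrochemiluminescence immunoassay. Capture used MW1 (expanded polyglutamine) or MAB2166 antibody coated at 1 μg/mL overnight at 4 °C. Samples were bound overnight at 4 °C, then a rabbit monoclonal detection antibody and SULFO-TAG anti-rabbit, each at 0.25 μg/mL, were applied for 1 h at room temperature.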

| Compound | pIC50 |
| --- | --- |
| Cc1cn2nc(-c3ccc(-c4cnc(N(C)C5CC(C)(C)NC(C)(C)C5)nn4)c(O)c3)cc(C)c2n1 [Cpd 141, 5-(2,8-dimethylimidazo[1,2-b]pyridazin-6-yl)-2-{3-[methyl(2,2,6,6-tetramethylpiperidin-4-yl)amino]-1,2,4-triazin-6-yl}phenol] | ≥ 7.00 |
| CN(c1cnc(-c2ccc(-c3ccccn3)cc2O)nn1)C1CC(C)(C)NC(C)(C)C1 [Cpd 393, 2-{6-[methyl(2,2,6,6-tetramethylpiperidin-4-yl)amino]-1,2,4-triazin-3-yl}-5-(pyridin-2-yl)phenol] | ≥ 7.00 |
| CN(c1ncc(-c2ccc(-c3cnc4[nH]ncc4c3)cc2O)nn1)C1CC(C)(C)NC(C)(C)C1 [Cpd 132, 2-{3-[methyl(2,2,6,6-tetramethylpiperidin-4-yl)amino]-1,2,4-triazin-6-yl}-5-(1H-pyrazolo[3,4-b]pyridin-5-yl)phenol] | 6.30 to 7.00 |
| CC(C)(C)NC1CCN(c2ncc(-c3ccc(-c4ncccn4)cc3O)nn2)C1 (stereo not drawn) [Cpd 209, 2-{3-[3-(tert-butylamino)pyrrolidin-l-yl]-1,2,4-triazin-6-yl}-5-(pyrimidin-2-yl)phenol] | 5.52 to 6.00 |
| CN(c1ncc(-c2ccc(-c3ccnn3C)cc2O)nn1)C1CC(C)(C)NC(C)(C)C1 [Cpd 124, 5-(1-methyl-1H-pyrazol-5-yl)-2-{3-[methyl(2,2,6,6-tetramethylpiperidin-4-yl)amino]-1,2,4-triazin-6-yl}phenol] | 6.30 to 7.00 |
| Oc1cc(-c2cn[nH]c2)ccc1-c1cnc(N2CCC(NC34CC5CC(CC(C5)C3)C4)C2)nn1 (stereo not drawn) [Cpd 157, 2-(3-{3-[(adamantan-1-yl)amino]pyrrolidin-1-yl}-1,2,4-triazin-6-yl)-5-(1H-pyrazol-4-yl)phenol] | 6.30 to 7.00 |
| CN(c1ncc(-c2ccc(-c3ncc4c(cnn4C)n3)cc2O)nn1)C1CC(C)(C)NC(C)(C)C1 [Cpd 281, 5-(1-methyl-1H-pyrazolo[4,3-d]pyrimidin-5-yl)-2-{3-[methyl(2,2,6,6-tetramethylpiperidin-4-yl)amino]-1,2,4-triazin-6-yl}phenol] | ≥ 7.00 |
| CC(C)NC1CCN(c2ncc(-c3ccc(-c4ccc5nccn5n4)cc3O)nn2)C1 (stereo not drawn) [Cpd 294] | ≥ 7.00 |
| 2-(3-{[(3S,4S)-3-fluoro-2,2,6,6-tetramethylpiperidin-4-yl]amino}-1,2,4-triazin-6-yl)-5-(1H-imidazol-1-yl)phenol [Cpd 238] | ≥ 7.00 |
| CCC(C)(C)NC1CCN(c2ncc(-c3ccc(-c4cn[nH]c4)cc3O)nn2)C1 (stereo not drawn) [Cpd 154, 2-(3-{3-[(2-methylbutan-2-yl)amino]pyrrolidin-1-yl}-1,2,4-triazin-6-yl)-5-(1H-pyrazol-4-yl)phenol] | ≥ 7.00 |
| CC1(C)CC(Nc2ncc(-c3ccc(-c4cn[nH]c4)cc3O)nn2)CC(C)(C)N1 [Cpd 13, 5-(1H-pyrazol-4-yl)-2-{3-[(2,2,6,6-tetramethylpiperidin-4-yl)amino]-1,2,4-triazin-6-yl}phenol] | ≥ 7.00 |
| CN(c1ncc(-c2ccc(-n3cnc(C#N)c3)cc2O)nn1)C1CC(C)(C)NC(C)(C)C1 [Cpd 139, 1-(3-hydroxy-4-{3-[methyl(2,2,6,6-tetramethylpiperidin-4-yl)amino]-1,2,4-triazin-6-yl}phenyl)-1H-imidazole-4-carbonitrile] | 6.30 to 7.00 |
| CN1CCC2(CC1)CN(c1ncc(-c3ccc(-n4cc(F)cn4)cc3O)nn1)C2 [Cpd 229, 5-(4-fluoro-1H-pyrazol-1-yl)-2-[3-(7-methyl-2,7-diazaspiro[3.5]nonan-2-yl)-1,2,4-triazin-6-yl]phenol] | < 6.30 |
| CC(C)N[C@H]1CCN(c2ncc(-c3ccc(-c4cn[nH]c4)cc3O)nn2)C1 [Cpd 347, 2-(3-{(3S)-3-[(propan-2-yl)amino]pyrrolidin-1-yl}-1,2,4-triazin-6-yl)-5-(1H-pyrazol-4-yl)phenol] | ≥ 7.00 |
| NC1C2CN(c3ncc(-c4ccc(-c5cn[nH]c5)cc4O)nn3)CC12 (stereo not drawn) [Cpd 100, 2-[3-(6-amino-3-azabicyclo[3.1.0]hexan-3-yl)-1,2,4-triazin-6-yl]-5-(1H-pyrazol-4-yl)phenol] | ≥ 7.00 |
| CN(c1ncc(-c2ccc(-c3nccs3)cc2O)nn1)C1CC(C)(C)NC(C)(C)C1 [Cpd 58, 2-{3-[methyl(2,2,6,6-tetramethylpiperidin-4-yl)amino]-1,2,4-triazin-6-yl}-5-(1,3-thiazol-2-yl)phenol] | ≥ 7.00 |
| CC1(C)CN(c2ncc(-c3ccc(-c4cn[nH]c4)cc3O)nn2)CC(C)(C)N1 [Cpd 282, 5-(1H-pyrazol-4-yl)-2-[3-(3,3,5,5-tetramethylpiperazin-1-yl)-1,2,4-triazin-6-yl]phenol] | < 6.30 |
| CC1(C)CC(Nc2cnc(-c3ccc(-n4nccn4)cc3O)nn2)CC(C)(C)N1 [Cpd 401, 2-{6-[(2,2,6,6-tetramethylpiperidin-4-yl)amino]-1,2,4-triazin-3-yl}-5-(2H-1,2,3-triazol-2-yl)phenol] | ≥ 7.00 |
| CN1CCC2(CC1)CN(c1ncc(-c3ccc(-c4cnc5c(cnn5C)c4)cc3O)nn1)C2 [Cpd 224, 2-[3-(7-methyl-2,7-diazaspiro[3.5]nonan-2-yl)-1,2,4-triazin-6-yl]-5-(1-methyl-1H-pyrazolo[3,4-b]pyridin-5-yl)phenol] | 5.52 to 6.00 |
| CC1(C)CC(Nc2ncc(-c3ccc(-c4ncccn4)cc3O)nn2)CC(C)(C)N1 [Cpd 279, 5-(pyrimidin-2-yl)-2-{3-[(2,2,6,6-tetramethylpiperidin-4-yl)amino]-1,2,4-triazin-6-yl}phenol] | ≥ 7.00 |
| CN[C@H]1CCN(c2ncc(-c3ccc(-c4cn[nH]c4)cc3O)nn2)C1 [Cpd 114, 2-{3-[(3S)-3-(methylamino)pyrrolidin-l-yl]-1,2,4-triazin-6-yl}-5-(1H-pyrazol-4-yl)phenol] | ≥ 7.00 |
| Oc1cc(-c2c[nH]nc2F)ccc1-c1cnc(N2CC3(CCNCC3)C2)nn1 [Cpd 151, 2-[3-(2,7-diazaspiro[3.5]nonan-2-yl)-1,2,4-triazin-6-yl]-5-(3-fluoro-1H-pyrazol-4-yl)phenol] | ≥ 7.00 |
| COc1cc(-c2ccc(-c3cnc(N(C)C4CC(C)(C)NC(C)(C)C4)nn3)c(O)c2)nn2ccnc12 [Cpd 304, 5-(8-methoxyimidazo[1,2-b]pyridazin-6-yl)-2-{3-[methyl(2,2,6,6-tetramethylpiperidin-4-yl)amino]-1,2,4-triazin-6-yl}phenol] | ≥ 7.00 |
| CN(c1ncc(-c2ccc(-c3cn[nH]c3)cc2O)nn1)C1CCCNC1 (stereo not drawn) [Cpd 20, 2-{3-[methyl(piperidin-3-yl)amino]-1,2,4-triazin-6-yl}-5-(1H-pyrazol-4-yl)phenol] | < 6.30 |
| CN(c1ncc(-c2ccc(-c3ccccn3)cc2O)nn1)C1CC(C)(C)NC(C)(C)C1 [Cpd 71, 2-{3-[methyl(2,2,6,6-tetramethylpiperidin-4-yl)amino]-1,2,4-triazin-6-yl}-5-(pyridin-2-yl)phenol] | ≥ 7.00 |
| CN(c1ncc(-c2ccc(-c3ccncn3)cc2O)nn1)C1CC(C)(C)NC(C)(C)C1 [Cpd 102, 2-{3-[methyl(2,2,6,6-tetramethylpiperidin-4-yl)amino]-1,2,4-triazin-6-yl}-5-(pyrimidin-4-yl)phenol] | ≥ 7.00 |
| COc1cc(-c2ccc(-c3cnc(NC4CC(C)(C)NC(C)(C)C4)nn3)c(O)c2)ncn1 [Cpd 254, 5-(6-methoxypyrimidin-4-yl)-2-{3-[(2,2,6,6-tetramethylpiperidin-4-yl)amino]-1,2,4-triazin-6-yl}phenol] | ≥ 7.00 |
